Read-outs that look alike come from different tables or passages of the source.

Test [1] has as its system A2780 cells. Briefly: Proliferation assay, A2780. The class given is cell-based, human. The following applies: 72-hour exposure, Cell Titre-Glo, read-out: Inhibition of A2780 cell proliferation IC50. As for the experimental part: Cultivated tumour cells (HeLa, human cervical tumour cells, ATCC CCL-2; NCI-H460, human non-small cell lung carcinoma cells, ATCC HTB-177; DU 145, hormone-independent human prostate carcinoma cells, ATCC HTB-81; HeLa-MaTu-ADR, multidrug-resistant human cervical carcinoma cells, EPO-GmbH Berlin; Caco-2, human colorectal carcinoma cells, ATCC HTB-37; B16F10, mouse melanoma cells, ATCC CRL-6475) were plated at a density of 5,000 cells/well (DU145, HeLa-MaTu-ADR), 3,000 cells/well (NCI-H460, HeLa), 1,500 cells/well (Caco-2), or 1,000 cells/well (B16F10) in a 96-well multititer plate in 200 μL of their respective growth medium supplemented 10% fetal calf serum. After 24 hours, the cells of one plate (zero-point plate) were stained with crystal violet (see below), while the medium of the other plates was supplemented with the test substances in various concentrations (0 μM, as well as in the range of 0.0001-10 μM; the final concentration of the solvent dimethyl sulfoxide was adjusted to 0.1%) using a Hewlett-Packard HP D300 Digital Dispenser. The cells were incubated for 4 days in the presence of test substances. Cell proliferation was determined by staining the cells with crystal violet: the cells were fixed by adding 20 μl/measuring point of an 11% glutaric aldehyde solution for 15 minutes at room temperature. After three washing cycles of the fixed cells with water, the plates were dried at room temperature. The cells were stained by adding 100 μl/measuring point of a 0.1% crystal violet solution (pH 3.0). After three washing cycles of the stained cells with water, the plates were dried at room temperature. The dye was dissolved by adding 100 μl/measuring point of a 10% acetic acid solution. The extinction was determined by photometry at a wavelength of 595 nm. The change of cell number, in percent, was calculated by normalization of the measured values to the extinction values of the zero-point plate (=0%) and the extinction of the untreated ([…]) cells (=100%). The IC50 values (inhibitory concentration at 50% of maximal effect) were determined by means of a 4 parameter fit. A2780 human ovarian carcinoma cells (ECACC #93112519) and non-adherent MOLM-13 human acute myeloid leukemia cells (DSMZ ACC 554) were seeded at a density of 3,000 cell/well (A2780) or 5,000 cells/well (MOLM-13) in a 96-well multititer plate in 150 μL of growth medium supplemented 10% fetal calf serum. After 24 hours, cell viability of one plate (zero-point plate) was determined with the Cell Titre-Glo Luminescent Cell Viability Assay (Promega), while the medium of the other plates was supplemented with the test substances in various concentrations (0 μM, as well as in the range of 0.0001-10 μM; the final concentration of the solvent dimethyl sulfoxide was adjusted to 0.1%) using a Hewlett-Packard HP D300 Digital Dispenser. Cell viability was assessed after 72-hour exposure with the Cell Titre-Glo Luminescent Cell Viability Assay (Promega). IC50 values (inhibitory concentration at 50% of maximal effect) were determined by means of a 4 parameter fit on measurement data which were normalized to vehicle (DMSO) treated cells (=100%) and measurement readings taken immediately before compound exposure (=0%).

Test [2] concerns the target T1, CDK9/CycT1 (Homo sapiens, UniProt P50750).
T1 construct: Recombinant full-length His-tagged human CDK9 and CycT1; His; purchased Life Technologies PV4131; host or cells: insect cells
Description: CDK9/CycT1 high ATP kinase assay (TR-FRET, 2 mM ATP). In kind it is biochemical. As to conditions: for Selectivity high ATP CDK9 over high ATP CDK2: IC50 (high ATP CDK2)/IC50 (high ATP CDK9): ratio from Methods 1b and 2b, minimal values for IC50s near the assay limit; for IC50: 2 mM ATP, Method 1b, lower limit for IC50s about 1-2 nM. A digest of the protocol: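 Full-length His-tagged human CDK9/CycT1 from insect cells (about 0.5 μg/ml) was preincubated with compound for 15 min at 22° C in 50 mM Tris/HCl pH 8.0, 10 mM MgCl2, 1.0 mM DTT. Phosphorylation was detected by TR-FRET with anti-RB(pSer807/pSer811) antibody, as the 665/622 nm ratio normalised to no-inhibitor and no-enzyme controls.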

T1 sequence (P50750 whole entry): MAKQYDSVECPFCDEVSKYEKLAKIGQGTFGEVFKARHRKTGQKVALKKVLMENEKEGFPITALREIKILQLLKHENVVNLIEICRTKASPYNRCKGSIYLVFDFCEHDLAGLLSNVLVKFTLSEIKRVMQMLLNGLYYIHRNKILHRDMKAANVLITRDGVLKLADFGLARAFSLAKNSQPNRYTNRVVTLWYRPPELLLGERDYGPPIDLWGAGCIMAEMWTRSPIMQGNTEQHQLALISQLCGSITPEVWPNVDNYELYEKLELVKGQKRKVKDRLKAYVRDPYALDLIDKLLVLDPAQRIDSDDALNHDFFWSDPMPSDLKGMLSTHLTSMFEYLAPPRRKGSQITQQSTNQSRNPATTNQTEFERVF
T1 sequence (O60563 whole entry partner): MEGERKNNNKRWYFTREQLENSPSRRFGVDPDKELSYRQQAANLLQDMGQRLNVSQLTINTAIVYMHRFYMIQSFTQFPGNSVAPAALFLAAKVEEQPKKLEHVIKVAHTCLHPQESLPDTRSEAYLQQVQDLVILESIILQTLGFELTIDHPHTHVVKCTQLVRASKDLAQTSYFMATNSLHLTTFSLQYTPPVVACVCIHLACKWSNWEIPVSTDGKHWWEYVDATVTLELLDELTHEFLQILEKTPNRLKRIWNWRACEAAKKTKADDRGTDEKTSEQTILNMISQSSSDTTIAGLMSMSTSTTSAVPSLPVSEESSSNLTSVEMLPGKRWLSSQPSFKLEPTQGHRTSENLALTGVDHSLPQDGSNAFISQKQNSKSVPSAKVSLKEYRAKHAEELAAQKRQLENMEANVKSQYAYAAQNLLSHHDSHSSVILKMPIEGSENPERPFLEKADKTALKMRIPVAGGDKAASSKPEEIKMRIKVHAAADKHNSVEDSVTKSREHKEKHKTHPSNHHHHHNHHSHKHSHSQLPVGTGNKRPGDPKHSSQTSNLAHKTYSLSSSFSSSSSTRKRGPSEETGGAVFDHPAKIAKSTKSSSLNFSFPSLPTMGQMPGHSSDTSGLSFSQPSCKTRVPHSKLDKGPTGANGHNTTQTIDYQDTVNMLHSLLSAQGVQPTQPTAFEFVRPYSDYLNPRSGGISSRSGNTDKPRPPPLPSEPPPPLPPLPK

Regarding `CC1CCCOc2cc(ccc2F)-c2cc(ncc2F)Nc2cc(CS(C)(=O)=O)cc(n2)O1` (racemic) [Example 28, 3,20-difluoro-14-methyl-10-[(methylsulfonyl)methyl]-13,18-dioxa-5,7,24-triazatetracyclo[17.3.1.1^2,6.1^8,12]pentacosa-1(23),2(25),3,5,8(24),9,11,19,21-nonaene], the IC50 in test [1] (Homo sapiens, A2780, 72 h) stood at 16 nM. The “Selectivity high ATP CDK9 over high ATP CDK2: IC50 (high ATP CDK2)/IC50 (high ATP CDK9)” value (from here on “Selectivity high ATP CDK9”) in test [2] is recorded as 189.

`CS(=N)(=O)Cc1cc2cc(c1)OCCCCOc1cc(ccc1F)-c1nc(ncc1F)N2` (racemic) [Example 4, (rac)-3,20-difluoro-10-[(S-methylsulfonimidoyl)methyl]-13,18-dioxa-5,7,25-triazatetracyclo[17.3.1.1^2,6.1^8,12]pentacosa-1(23),2(25),3,5,8(24),9,11,19,21-nonaene]: the IC50 in test [1] (Homo sapiens, A2780, 72 h) stood at 41 nM; in test [2], 3 nM. For the same compound, the “Selectivity high ATP CDK9” value in test [2] was found to be 513.

Consider `CS(=N)(=O)Cc1cc2cc(c1)OCCCCOc1c(F)ccc(c1F)-c1nc(ncc1F)N2` (racemic) [Example 8, (rac)-3,20,23-trifluoro-10-[(S-methylsulfonimidoyl)methyl]-13,18-dioxa-5,7,25-triazatetracyclo[17.3.1.1^2,6.1^8,12]pentacosa-1(23),2(25),3,5,8(24),9,11,19,21-nonaene], for which, in test [1] (Homo sapiens, A2780, 72 h), the IC50 came out at 68 nM. Further, in test [2], the IC50 was found to be 17 nM and the “Selectivity high ATP CDK9” value stood at 385.

For `CC1CCCOc2cc(ccc2F)-c2cc(ncc2F)Nc2cc(CS(C)(=N)=O)cc(n2)O1` (single isomer, unassigned) [Example 17, 3,20-difluoro-14-methyl-10-[(S-methylsulfonimidoyl)methyl]-13,18-dioxa-5,7,24-triazatetracyclo[17.3.1.1^2,6.1^8,12]pentacosa-1(23),2(25),3,5,8(24),9,11,19,21-nonaene], in test [1], the IC50 was found to be 6 nM. Further, the “Selectivity high ATP CDK9” value in test [2] was determined as 132.

In the case of `CC(C)(C)OC(=O)N=S(C)(=O)Cc1cc2cc(c1)OCCCCOc1cc(ccc1F)-c1nc(ncc1F)N2` (racemic) [Example 3, (rac)-tert-butyl [{[3,20-difluoro-13,18-dioxa-5,7,25-triazatetracyclo[17.3.1.1^2,6.1^8,12]pentacosa-1(23),2(25),3,5,8(24),9,11,19,21-nonaen-10-yl]methyl}(methyl)oxido-λ^6-sulfanylidene]carbamate], the IC50 in test [1] (Homo sapiens, A2780, 72 h) amounted to 56 nM. In test [2], the IC50 came out at 5 nM and the “Selectivity high ATP CDK9” value is listed as more than 4000.

As to `CC(C)(C)OC(=O)N=S(C)(=O)Cc1cc2cc(c1)OCCCCCOc1cc(ccc1F)-c1nc(ncc1F)N2` (racemic) [Example 5, (rac)-tert-butyl [{[3,21-difluoro-13,19-dioxa-5,7,26-triazatetracyclo[18.3.1.1^2,6.1^8,12]hexacosa-1(24),2(26),3,5,8(25),9,11,20,22-nonaen-10-yl]methyl}(methyl)oxido-λ^6-sulfanylidene]carbamate], the IC50 in test [1] (Homo sapiens, A2780, 72 h) was more than 100 nM. Moreover, in test [2], the IC50 was determined as 24 nM and the “Selectivity high ATP CDK9” value is recorded as more than 833.

Turning to `CC1CCCCOc2cc(ccc2F)-c2cc(ncc2F)Nc2cc(CS(C)(=N)=O)cc(n2)O1` (single isomer, unassigned) [Example 21, 3,21-difluoro-14-methyl-10-[(S-methylsulfonimidoyl)methyl]-13,19-dioxa-5,7,25-triazatetracyclo[18.3.1.1^2,6.1^8,12]hexacosa-1(24),2(26),3,5,8(25),9,11,20,22-nonaene], the IC50 in test [1] was found to be 27 nM. For the same compound, the “Selectivity high ATP CDK9” value in test [2] worked out at 1225.

Consider `CS(=N)(=O)Cc1cc2cc(c1)OCCCCCOc1cc(ccc1F)-c1nc(ncc1F)N2` (racemic) [Example 6, (rac)-3,21-difluoro-10-[(S-methylsulfonimidoyl)methyl]-13,19-dioxa-5,7,26-triazatetracyclo[18.3.1.1^2,6.1^8,12]hexacosa-1(24),2(26),3,5,8(25),9,11,20,22-nonaene], for which the IC50 in test [1] (Homo sapiens, A2780, 72 h) was 39 nM. In addition, in test [2], the IC50 was 5 nM and the “Selectivity high ATP CDK9” value turned out to be 3240.

For `CS(=N)(=O)Cc1cc2nc(c1)OCCCCOc1cc(ccc1F)-c1cc(ncc1F)N2` (racemic) [Example 2, (rac)-3,20-difluoro-10-[(S-methylsulfonimidoyl)methyl]-13,18-dioxa-5,7,24-triazatetracyclo[17.3.1.1^2,6.1^8,12]pentacosa-1(23),2(25),3,5,8(24),9,11,19,21-nonaene], the IC50 in test [1] (Homo sapiens, A2780, 72 h) was found to be 9 nM; in test [2] it was 7 nM. The “Selectivity high ATP CDK9” value in test [2] was 105.

Consider `CC1CCCOc2cc(ccc2F)-c2cc(ncc2F)Nc2cc(CS(C)(=N)=O)cc(n2)O1` (single isomer, unassigned) [Example 16, 3,20-difluoro-14-methyl-10-[(S-methylsulfonimidoyl)methyl]-13,18-dioxa-5,7,24-triazatetracyclo[17.3.1.1^2,6.1^8,12]pentacosa-1(23),2(25),3,5,8(24),9,11,19,21-nonaene], for which, in test [1], the IC50 worked out at 6 nM. For the same compound, in test [2], the “Selectivity high ATP CDK9” value is 72.

As for `CS(=N)(=O)Cc1cc2cc(c1)OCCCOc1cc(ccc1F)-c1nc(ncc1F)N2` (racemic) [Example 10, (rac)-3,19-difluoro-10-[(S-methylsulfonimidoyl)methyl]-13,17-dioxa-5,7,24-triazatetracyclo[16.3.1.1^2,6.1^8,12]tetracosa-1(22),2(24),3,5,8(23),9,11,18,20-nonaene], the IC50 was determined as 48 nM in test [1] (Homo sapiens, A2780, 72 h) and 25 nM in test [2]. For the same compound, the “Selectivity high ATP CDK9” value in test [2] was 190.

For `CC1CCCCOc2cc(ccc2F)-c2cc(ncc2F)Nc2cc(CS(C)(=N)=O)cc(n2)O1` (single isomer, unassigned) [Example 22, 3,21-difluoro-14-methyl-10-[(S-methylsulfonimidoyl)methyl]-13,19-dioxa-5,7,25-triazatetracyclo[18.3.1.1^2,6.1^8,12]hexacosa-1(24),2(26),3,5,8(25),9,11,20,22-nonaene], the IC50 in test [1] was 0.7 nM. In addition, the “Selectivity high ATP CDK9” value in test [2] stood at 251.
